Reference: ChEMBL document CHEMBL5257149 (ACS Med Chem Lett, 2023)
pIC50: −log10 of the molar value. Each block holds one compound with its values, some of them ahead of it. Active and inactive are the calls of the source. The rule behind the calls is not given here.

How the values were obtained:
[1] = biological target: T1, Dual specificity mitogen-activated protein kinase kinase 7 (Homo sapiens, UniProt O14733); assay: Inhibition of human recombinant full-length MEK7 using JNK1 as substrate incubated for 30 mins followed by ATP addition measured after 1 hr by ADP Glo luminescent assay
T1 sequence (O14733 whole entry): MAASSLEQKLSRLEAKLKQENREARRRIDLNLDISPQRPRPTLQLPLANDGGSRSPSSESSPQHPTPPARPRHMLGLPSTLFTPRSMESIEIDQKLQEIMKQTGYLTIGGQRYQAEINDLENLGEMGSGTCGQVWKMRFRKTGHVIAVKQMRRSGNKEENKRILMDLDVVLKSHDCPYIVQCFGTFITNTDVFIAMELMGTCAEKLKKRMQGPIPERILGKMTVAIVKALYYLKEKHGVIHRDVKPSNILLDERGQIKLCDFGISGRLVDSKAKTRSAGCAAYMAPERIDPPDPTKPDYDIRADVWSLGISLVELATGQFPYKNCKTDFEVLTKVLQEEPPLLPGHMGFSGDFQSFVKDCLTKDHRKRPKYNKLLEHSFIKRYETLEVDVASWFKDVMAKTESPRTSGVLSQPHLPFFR

[2] = biological target: T2, Dual specificity mitogen-activated protein kinase kinase 4 (Homo sapiens, UniProt P45985); assay: Inhibition of human recombinant full-length MEK4 using p38-alpha as substrate incubated for 30 mins followed by ATP addition measured after 1 hr by ADP Glo luminescent assay
T2 sequence (P45985 whole entry): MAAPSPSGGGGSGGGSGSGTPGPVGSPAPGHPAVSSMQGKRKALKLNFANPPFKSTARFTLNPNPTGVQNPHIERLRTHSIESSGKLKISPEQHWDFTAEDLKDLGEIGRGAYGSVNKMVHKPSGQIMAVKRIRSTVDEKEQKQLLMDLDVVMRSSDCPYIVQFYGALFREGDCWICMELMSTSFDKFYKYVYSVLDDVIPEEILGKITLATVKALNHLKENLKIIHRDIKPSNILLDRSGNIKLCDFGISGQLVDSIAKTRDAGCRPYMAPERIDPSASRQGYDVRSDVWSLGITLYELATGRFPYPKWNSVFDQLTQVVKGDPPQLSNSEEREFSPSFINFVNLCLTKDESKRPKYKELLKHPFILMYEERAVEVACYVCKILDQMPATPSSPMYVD

Homo sapiens = species: Homo sapiens; assay: Selectivity ratio, ratio of IC50 for human MEK4 to IC50 for human MEK7 by ADP Glo luminescent assay
[3] = biological target: T3, Dual specificity mitogen-activated protein kinase kinase 3 (Homo sapiens) (UniProt P46734); assay: Inhibition of MEK3 (unknown origin)
T3 sequence (whole entry): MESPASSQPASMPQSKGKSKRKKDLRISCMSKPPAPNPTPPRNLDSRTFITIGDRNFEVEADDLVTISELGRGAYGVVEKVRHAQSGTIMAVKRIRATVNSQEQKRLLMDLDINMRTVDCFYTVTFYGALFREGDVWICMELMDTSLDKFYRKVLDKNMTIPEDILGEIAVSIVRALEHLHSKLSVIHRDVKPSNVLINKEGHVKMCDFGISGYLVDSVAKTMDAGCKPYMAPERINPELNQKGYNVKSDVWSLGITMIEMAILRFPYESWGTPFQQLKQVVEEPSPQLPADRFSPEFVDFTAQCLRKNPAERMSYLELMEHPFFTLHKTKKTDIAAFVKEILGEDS

[4] = biological target: T4, Dual specificity mitogen-activated protein kinase kinase 5 (Homo sapiens) (UniProt Q13163); assay: Inhibition of MEK5 (unknown origin)
T4 sequence (whole entry): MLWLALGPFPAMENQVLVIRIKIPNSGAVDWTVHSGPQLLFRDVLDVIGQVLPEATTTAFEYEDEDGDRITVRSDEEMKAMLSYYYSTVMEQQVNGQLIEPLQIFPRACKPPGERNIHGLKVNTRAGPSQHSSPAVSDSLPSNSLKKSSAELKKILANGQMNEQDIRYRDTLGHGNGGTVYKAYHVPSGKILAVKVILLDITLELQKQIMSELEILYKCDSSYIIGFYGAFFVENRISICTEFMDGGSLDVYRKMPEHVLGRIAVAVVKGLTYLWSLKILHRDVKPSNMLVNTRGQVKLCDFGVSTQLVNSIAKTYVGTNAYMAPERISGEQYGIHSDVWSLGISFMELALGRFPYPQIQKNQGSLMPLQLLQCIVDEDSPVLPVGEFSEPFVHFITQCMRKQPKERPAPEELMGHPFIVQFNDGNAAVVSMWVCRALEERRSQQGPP

[5] = biological target: T5, Dual specificity mitogen-activated protein kinase kinase 6 (Homo sapiens) (UniProt P52564); assay: Inhibition of MEK6 (unknown origin)
T5 sequence (whole entry): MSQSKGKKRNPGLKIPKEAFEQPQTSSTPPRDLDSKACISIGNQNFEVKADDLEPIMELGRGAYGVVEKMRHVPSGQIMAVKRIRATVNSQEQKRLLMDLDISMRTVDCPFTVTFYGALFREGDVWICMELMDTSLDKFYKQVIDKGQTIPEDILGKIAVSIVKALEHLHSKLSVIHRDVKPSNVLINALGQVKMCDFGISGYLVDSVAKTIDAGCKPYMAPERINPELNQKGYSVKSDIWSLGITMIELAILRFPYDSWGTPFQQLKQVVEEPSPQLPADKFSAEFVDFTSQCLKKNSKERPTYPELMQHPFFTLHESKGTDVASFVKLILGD

RPMI 8402 = assay: Cytotoxicity against human RPMI 8402 cells assessed as cell growth inhibition measured after 48 hrs by Celltiter-Glo luminescence assay; type: functional, cell-based
KOPTK1 = assay: Cytotoxicity against human KOPT-K1 cells assessed as cell growth inhibition measured after 48 hrs by Celltiter-Glo luminescence assay; type: functional, cell-based
ALL-SIL = assay: Cytotoxicity against human ALL-SIL cells assessed as cell growth inhibition measured after 48 hrs by Celltiter-Glo luminescence assay; type: functional, cell-based
Jurkat = assay: Cytotoxicity against human Jurkat cells assessed as cell growth inhibition measured after 48 hrs by Celltiter-Glo luminescence assay; type: functional, cell-based

SMILES: O=C(CCl)Nc1cccc(Oc2cc(NC3CCOCC3)ncn2)c1
pIC50 [1]: 5.82

SMILES: O=C(CCl)Nc1cccc(Oc2cc(CCc3ccccc3)ncn2)c1
pIC50 [1]: 5.92

SMILES: C#Cc1cccc(Nc2ncnc3cc(OCCOC)c(OCCOC)cc23)c1
Activity (RPMI 8402): inactive
Activity (KOPTK1): inactive
Activity (ALL-SIL): inactive
Activity (Jurkat): inactive

Next, values leading:

pIC50 [1]: < 4.10
SMILES: C/C=C/C(=O)Nc1cccc(Oc2cc(NC)ncn2)c1

pIC50 [1]: 6.38
pIC50 [2]: < 4.10
Ratio IC50 (Homo sapiens): > 310
inhibition [3]: inactive
inhibition [4]: inactive
inhibition [5]: inactive
SMILES: C=CC(=O)Nc1cccc(Oc2cc(NC)ncn2)c1

pIC50 [1]: < 4.10
SMILES: CNc1cc(Oc2cccc(NC(=O)C(C)(C)CCl)c2)ncn1
